# Experimental data as given in patent publication US20160263131A1, “TREATMENT OF HEPATIC FIBROSIS USING AN INHIBITOR OF CBP/CATENIN” (priority 2013, published 2016).
# How the values were obtained:
# [1] = test system: NASH mice; test: Liver TG content in NASH mice; assay type: in vivo, C57BL/6J mice; settings: 10 mg/kg oral QD 9-12 wks, mean±SD, Disease-control 67.7±17.7, significant decrease
# Procedure: Liver total lipid-extracts were obtained from right lobes by Folch's method (Folch J. et al, J. Biol. Chem. 1957; 226 (1): 497). The livers were homogenized in chloroform-methanol (2:1, v/v) and incubated overnight at room temperature. After washing with chloroform-methanol-water (8:4:3, v/v/v), the extracts were evaporated to dryness, and dissolved in isopropanol. Liver TG levels were measured by Triglyceride E-test (Wako Pure Chemical Industries). Extracts were diluted 2- to 4-fold in isopropanol when the TG contents exceed the limit of detection.
# [2] = test system: NASH mice; test: Serum TG in NASH mice; assay type: in vivo, C57BL/6J mice; settings: 10 mg/kg oral QD 9-12 wks, mean±SD, Disease-control 558±256, no significant difference
# Procedure: (§1) Non-fasting blood glucose was measured in whole blood using Life Check (EIDIA, Japan). For serum biochemistry, blood was collected in polypropylene tubes without anticoagulant and kept at room temperature for 30 minutes, followed by at 4° C. for 1 hour. The blood samples were then centrifuged at 1,000×g for 15 minutes at 4° C. The supernatant was collected and stored at −80° C. until use. Serum ALT and TG levels were measured by FUJI DRI-CHEM 7000 (Fujifilm, Japan).
# [3] = test system: Collagen Type 3; test: Quantitative RT-PCR of liver, Collagen Type 3 mRNA, NASH mice; assay type: in vivo, C57BL/6J mice; settings: 10 mg/kg oral QD 9-12 wks, 12 weeks of age, mean ± SD, n = 8, Normal 1.00 ± 0.16, Disease-control 2.27 ± 0.35, tended to be down-regulated, 10 mg/kg
# Procedure: (§2) Total RNA was extracted from liver samples using RNAiso (Takara Bio, Japan) according to the manufacturer's instructions. One μg of RNA was reverse-transcribed using a reaction mixture containing 4.4 mM MgCl2 (Roche, Switzerland), 40 U RNase inhibitor (Toyobo, Japan), 0.5 mM dNTP (Promega, USA), 6.28 μM random hexamer (Promega), 5× first strand buffer (Promega), 10 mM dithiothreitol (Invitrogen, USA) and 200 U MMLV-RT (Invitrogen) in a final volume of 20 μL. The reaction was carried out for 1 hour at 37° C., followed by 5 minutes at 99° C. Real-time PCR was performed using real-time PCR DICE and SYBR premix Taq (Takara Bio). To calculate the relative mRNA expression level, the expression of each gene was normalized to that of reference gene 36B4 (gene symbol: Rplp0). Information of PCR-primer sets and the plate layout was described in Table 1.
# [4] = test system: NASH mice; test: Whole blood glucose in NASH mice; assay type: in vivo, C57BL/6J mice; settings: 10 mg/kg oral QD 9-12 wks, mean±SD, Disease-control 682±63, significantly increased
# Procedure: as §1
# [5] = test system: NASH mice; test: Liver weight and liver-to-body weight ratio in NASH mice; assay type: in vivo, C57BL/6J mice; settings: 10 mg/kg oral QD 9-12 wks, mean±SD
# Procedure: (§3) The viability, clinical signs and behavior were monitored daily. Body weight was recorded daily before drug administration. […] The animals were sacrificed by exsanguination through direct cardiac puncture under ether anesthesia (Wako Pure Chemical Industries).
# [6] = test system: TIMP-1; test: Quantitative RT-PCR of liver, TIMP-1 mRNA, NASH mice; assay type: in vivo, C57BL/6J mice; settings: 10 mg/kg oral QD 9-12 wks, 12 weeks of age, mean ± SD, n = 8, Normal 1.00 ± 0.25, Disease-control 7.04 ± 2.13, tended to be down-regulated, 10 mg/kg
# Procedure: as §2
# [7] = test system: NASH mice; test: Liver hydroxyproline content in NASH mice; assay type: in vivo, C57BL/6J mice; settings: μg per mg total protein, 10 mg/kg oral QD 9-12 wks, mean±SD, Disease-control 1.09±0.42, no significant difference
# Procedure: To quantify liver hydroxyproline content, frozen liver samples (35-45 mg) were processed by an alkaline-acid hydrolysis method as follows: the livers were defatted with 100% acetone, dried in the air, dissolved in 2N NaOH at 65° C., and autoclaved at 121° C. for 20 minutes. The lysed samples (400 μL) were acid-hydrolyzed with 400 μL of 6N HCl at 121° C. for 20 minutes, and neutralized with 400 μL of 4N NaOH containing 10 mg/mL activated carbon. AC buffer (2.2M acetic acid/0.48M citric acid, 400 μL) was added to the samples, followed by centrifugation to collect the supernatant. To construct a standard curve of hydroxyproline, serial dilutions of trans-4-hydroxy-Lproline (Sigma-Aldrich) were prepared starting at 16 μg/mL. The prepared samples and standards (each 400 μL) were mixed with 400 μL chloramine T solution (Wako Pure Chemical Industries, Japan) and incubated for 25 minutes at room temperature. The samples were then mixed with Ehrlich's solution (400 μL) and heated at 65° C. for 20 minutes to develop the color. After samples were cooled on ice and centrifuged to remove precipitates, the optical density of each supernatant was measured at 560 nm. The concentrations of hydroxyproline were calculated from the hydroxyproline standard curve. Protein concentrations of liver samples were determined using a BCA protein assay kit (Thermo Fisher Scientific, USA) and used to normalize the calculated hydroxyproline values. Hydroxyproline levels were expressed as μg per mg total protein.
# [8] = Body weight and general condition of NASH mice; settings: mouse, in vivo
# Procedure: as §3
# [9] = test system: α-SMA; test: Quantitative RT-PCR of liver, α-SMA mRNA, NASH mice; assay type: in vivo, C57BL/6J mice; settings: 10 mg/kg oral QD 9-12 wks, 12 weeks of age, mean ± SD, n = 8, Normal 1.00 ± 0.60, Disease-control 2.43 ± 1.33, no significant difference, 10 mg/kg
# Procedure: as §2
# [10] = test system: NASH mice; test: Sirius red staining, fibrosis area in liver of NASH mice; assay type: in vivo, C57BL/6J mice; settings: NASH mice, 10 mg/kg oral QD 9-12 wks, 12 weeks of age, mean ± SD, n = 8; Disease-control 1.09 ± 0.27; significantly decreased; 10 mg/kg
# Procedure: C57BL/6J mice (15-day pregnant female) were obtained from Charles River Laboratories Japan (Kanagawa, Japan). All animals used in this study were housed and cared for in accordance with the Japanese Pharmacological Society Guidelines for Animal Use. The animals were maintained in a SPF facility under controlled conditions of temperature (23±2° C.), humidity (45±10%), lighting (12-hour artificial light and dark cycles; light from 8:00 to 20:00) and air exchange. A high pressure (20±4 Pa) was maintained in the experimental room to prevent contamination of the facility. The animals were housed in polycarbonate cages KN-600 (Natsume Seisakusho, Japan) with a maximum of 4 mice per cage. Sterilized PULMASμ (Material Research Center, Japan) was used for bedding and replaced once a week. Sterilized solid HFD was provided ad libitum, being placed in the metal lid on top of the cage. Pure water was provided ad libitum from a water bottle equipped with a rubber stopper and a sipper tube. Water bottles were replaced once a week, cleaned and sterilized in autoclave and reused. Mice were identified by numbers engraved on earrings. Each cage was labeled with a specific identification code.
# [11] = test system: NASH mice; test: Serum ALT in NASH mice; assay type: in vivo, C57BL/6J mice; settings: 10 mg/kg oral QD 9-12 wks, mean±SD, Disease-control 38±8, no significant difference
# Procedure: as §1
# [12] = test system: NASH mice; test: HE staining and NAFLD Activity score in NASH mice; settings: 10 mg/kg oral QD 9-12 wks, compared with Disease-control group
# Procedure: NASH was induced in 40 male mice by a single subcutaneous injection of 200 μg streptozotocin (Sigma-Aldrich, USA) 2 days after birth and feeding with high fat diet (HFD, 57 kcal % fat, cat# HFD32, CLEA Japan, Japan) after 4 weeks of age. The mice were randomized into 5 groups of 8 mice at 9 weeks of age. Eight male littermates, fed with normal diet (cat# CE-2, CLEA Japan) without streptozotocin treatment, were used for the Normal group.
# The test substance solution was filled in the osmotic pumps at concentrations determined based on the individual body weight at the start of treatment (day 0). Telmisartan was administered by oral route in a volume of 10 mL/kg body weight.
# Telmisartan was administered once daily at a dose of 10 mg/kg body weight.
# For HE staining, sections were cut from paraffin blocks of liver tissue prefixed in Bouin's solution and stained with Lillie-Mayer's Hematoxylin (Muto Pure Chemicals, Japan) and eosin solution (Wako Pure Chemical Industries).
smiles,measurement,setting,value
"CCCc1nc2c(C)cc(-c3nc4ccccc4n3C)cc2n1Cc1ccc(-c2ccccc2C(=O)O)cc1 [Telmisartan, reference compound]",Liver TG content,[1],30.6 ± 5.6 mg/g
same,Serum TG,[2],843 ± 609 mg/dL
same,"Collagen Type 3 mRNA expression level (relative, normalized to 36B4)",[3],1.73±0.33
same,Whole blood glucose (non-fasting),[4],880 ± 39 mg/dL
same,Liver-to-body weight ratio,"[5]; Disease-control 8.1±0.6, significant decrease",6.9±0.7%
same,Mean liver weight,"[5]; Disease-control 1867±183, significant decrease",1376 ± 80 mg
same,"TIMP-1 mRNA expression level (relative, normalized to 36B4)",[6],4.10±1.18
same,Liver hydroxyproline content,[7],0.95 ± 0.25 µg/mg
same,General condition,[8],No deterioration
same,"α-SMA mRNA expression level (relative, normalized to 36B4)",[9],1.83±0.36
same,Sirius red-positive area (fibrosis area),[10],0.50±0.10%
same,Serum ALT,[11],35±6 U/L
same,"HE-stained liver sections: fat deposition, hepatocellular ballooning and inflammatory cell infiltration",[12],marked improvements
